# Patent publication US20030229451A1, “Methods and systems for analyzing complex biological systems” (priority 2001, published 2003)
# Tested on: Saccharomyces cerevisiae wild type strain BY4743
# Assay: AF1 metabolite analysis (GC-MS, LC-MS) of yeast cells treated with antifungal drugs
# Format: cell-based
# Conditions: for # Compounds perturbed: 2x MIC, two hours; for Fold Change of NacetylDglucosamine: metabolite NacetylDglucosamine; for Fold Change of NacetylLglutamate: metabolite NacetylLglutamate; for Fold Change of NacetylLornithine: metabolite NacetylLornithine; for Fold Change of nicotinic acid: metabolite nicotinic acid; for Fold Change of nopaline: metabolite nopaline; for Fold Change of oleic acid: metabolite oleic acid; for Fold Change of ornithine: metabolite ornithine; for Fold Change of phenylalanine: metabolite phenylalanine; for Fold Change of phosphoenolpyruvate: metabolite phosphoenolpyruvate; for Fold Change of pipecolic acid: metabolite pipecolic acid; for Fold Change of proline: metabolite proline; for Fold Change of pyridoxine: metabolite pyridoxine; for Fold Change of selenoDLmethionine: metabolite selenoDLmethionine; for Fold Change of serine: metabolite serine; for Fold Change of sugar-phosphate: metabolite sugar-phosphate; for Fold Change of tetradecanoic acid: metabolite tetradecanoic acid; for Fold Change of threonine/homoserin: metabolite threonine/homoserin; for Fold Change of thymine: metabolite thymine; for Fold Change of tryptophan: metabolite tryptophan; for Fold Change of tyrosine: metabolite tyrosine; for Fold Change of urocanic acid: metabolite urocanic acid; for Fold Change of valine: metabolite valine; for Fold Change of zeatin: metabolite zeatin
compound,measurement,setting,value
CC[C@@H]([C@H](C)O)n1ncn(-c2ccc(N3CCN(c4ccc(OC[C@@H]5CO[C@@](Cn6cncn6)(c6ccc(F)cc6F)C5)cc4)CC3)cc2)c1=O [Posaconazole],# Compounds perturbed,P < 0.05,3
same,# Compounds perturbed,P < 0.1,4
same,Fold Change,"metabolite 2-ketobutyric acid, platform nLC",−0.9992
same,Fold Change,"metabolite 2-ketoglutaric, platform nLC",11.33
same,Fold Change,"metabolite 3-indolylacetonitri, platform nLC",−0.9998
same,Fold Change,"metabolite 4-aminobenzoic acid, platform pLC",0
same,Fold Change,"metabolite 4-methylcatechol, platform nLC",0
same,Fold Change,"metabolite 4-methylcatechol, platform pLC",0
same,Fold Change,"metabolite 4ambutyrate/dimglyc, platform pLC",31.37
same,Fold Change,"metabolite 4aminobutyrate/dimg, platform nLC",−0.008939
same,Fold Change,"metabolite 5hydroxyLtryptophan, platform nLC",0
same,Fold Change,"metabolite 5hydroxyLtryptophan, platform pLC",0
same,Fold Change,"metabolite 6-benzylaminopurine, platform nLC",0
same,Fold Change,"metabolite 6benzylaminopurine, platform pLC",0
same,Fold Change,"metabolite DLaminoadipic acid, platform nLC",−0.9935
same,Fold Change of NacetylDglucosamine,platform nLC,0
same,Fold Change of NacetylDglucosamine,platform pLC,0
same,Fold Change of NacetylLglutamate,platform nLC,−0.07165
same,Fold Change of NacetylLglutamate,platform pLC,0
same,Fold Change of NacetylLornithine,platform nLC,0
same,Fold Change of NacetylLornithine,platform pLC,0.1338
same,Fold Change of TMS mevalonic acid lactone,"metabolite TMS mevalonic acid lactone, platform GC",−0.3118
same,Fold Change,"metabolite abscisic acid, platform nLC",0
same,Fold Change,"metabolite abscisic acid, platform pLC",0
same,Fold Change,"metabolite aconitic acid, platform nLC",1.874
same,Fold Change,"metabolite adenine, platform nLC",0
same,Fold Change,"metabolite adenine, platform pLC",−0.0145
same,Fold Change,"metabolite adenosine, platform nLC",128.3
same,Fold Change,"metabolite adenosine, platform pLC",0
same,Fold Change,"metabolite alanine/sarcosine, platform pLC",0.1013
same,Fold Change,"metabolite alanine, platform GC",1.035
same,Fold Change,"metabolite alanine, platform nLC",0.1091
same,Fold Change,"metabolite allantoic acid, platform nLC",0.3321
same,Fold Change,"metabolite allantoic acid, platform pLC",0
same,Fold Change,"metabolite allantoin, platform nLC",5.97
same,Fold Change,"metabolite anthranillic acid, platform nLC",0
same,Fold Change,"metabolite anthranillic acid, platform pLC",0
same,Fold Change,"metabolite arginine, platform nLC",0.1707
same,Fold Change,"metabolite arginine, platform pLC",0.03383
same,Fold Change,"metabolite argininosuccinate, platform nLC",318.3
same,Fold Change,"metabolite argininosuccinate, platform pLC",0
same,Fold Change,"metabolite asparagine, platform GC",0.145
same,Fold Change,"metabolite asparagine, platform nLC",0.006865
same,Fold Change,"metabolite asparagine, platform pLC",0.4302
same,Fold Change,"metabolite aspartic acid, platform GC",−0.071
same,Fold Change,"metabolite aspartic acid, platform pLC",0.3626
same,Fold Change,"metabolite aspartic, platform nLC",0.305
same,Fold Change,"metabolite benzoic acid, platform nLC",0
same,Fold Change,"metabolite biotin, platform nLC",−0.9992
same,Fold Change,"metabolite biotin, platform pLC",0
same,Fold Change,"metabolite caffeic acid, platform nLC",−0.49
same,Fold Change,"metabolite caffeine, platform pLC",0
same,Fold Change,"metabolite campesterol, platform GC",0
same,Fold Change,"metabolite catechol, platform nLC",0
same,Fold Change,"metabolite cinnamic acid, platform nLC",0
same,Fold Change,"metabolite citric acid TME, platform pLC",0
same,Fold Change,"metabolite citricanoic/itaconi, platform nLC",0
same,Fold Change,"metabolite citrulline, platform nLC",1160
same,Fold Change,"metabolite citrulline, platform pLC",0.1011
same,Fold Change,"metabolite coumaric acid, platform nLC",0
same,Fold Change,"metabolite cytidine, platform nLC",−0.9986
same,Fold Change,"metabolite cytidine, platform pLC",0
same,Fold Change,"metabolite cytosine, platform nLC",0
same,Fold Change,"metabolite cytosine, platform pLC",1135
same,Fold Change,"metabolite decanoic acid, platform nLC",0.1263
same,Fold Change,"metabolite desmosterol, platform GC",0
same,Fold Change,"metabolite diaminopimelic acid, platform nLC",0
same,Fold Change,"metabolite diaminopimelic acid, platform pLC",0
same,Fold Change,"metabolite dihydrofolic acid, platform nLC",0
same,Fold Change,"metabolite dihydrofolic acid, platform pLC",0
same,Fold Change,"metabolite dipicolinic acid, platform pLC",0
same,Fold Change,"metabolite disaccaride1, platform GC",0.04733
same,Fold Change,"metabolite disaccaride2, platform GC",0.313
same,Fold Change,"metabolite disaccaride3, platform GC",0.3407
same,Fold Change of mevalonic acid lactone,"metabolite mevalonic acid lactone, platform GC",0.5555
same,Fold Change of mevalonic lactone,"metabolite mevalonic lactone, platform pLC",−0.08368
same,Fold Change of niacinamide,"metabolite niacinamide, platform pLC",0
same,Fold Change of nicotinic acid,platform nLC,1.421
same,Fold Change of nicotinic acid,platform pLC,−0.8142
same,Fold Change of nopaline,platform nLC,0.7554
same,Fold Change of nopaline,platform pLC,0
same,Fold Change of octadecanoic acid,"metabolite octadecanoic acid, platform GC",0.321
same,Fold Change of oleic acid,platform GC,−0.5057
same,Fold Change of oleic acid,platform nLC,0.5606
same,Fold Change of ornithine2,"metabolite ornithine2, platform GC",−0.1383
same,Fold Change of ornithine3,"metabolite ornithine3, platform GC",0.041
same,Fold Change of ornithine,platform nLC,2.314
same,Fold Change of ornithine,platform pLC,0.4314
same,Fold Change of orotic acid,"metabolite orotic acid, platform nLC",0
same,Fold Change of palmiteliadic acid,"metabolite palmiteliadic acid, platform GC",−0.2453
same,Fold Change of palmitic acid,"metabolite palmitic acid, platform nLC",0.1518
same,Fold Change of phenylalanine,platform GC,0.06069
same,Fold Change of phenylalanine,platform nLC,−0.03702
same,Fold Change of phenylalanine,platform pLC,−0.1585
same,Fold Change of phenylpyruvic acid,"metabolite phenylpyruvic acid, platform nLC",0
same,Fold Change of phosphate,"metabolite phosphate, platform GC",−0.1833
same,Fold Change of phosphoenolpyruvate,platform nLC,0
same,Fold Change of phosphoenolpyruvate,platform pLC,0
same,Fold Change of pinitol,"metabolite pinitol, platform nLC",0
same,Fold Change of pipecolic acid,platform nLC,0.1806
same,Fold Change of pipecolic acid,platform pLC,0.3444
same,Fold Change of porphobilinogen,"metabolite porphobilinogen, platform nLC",0
same,Fold Change of progesterone,"metabolite progesterone, platform pLC",0
same,Fold Change of proline,platform nLC,0.3147
same,Fold Change of proline,platform pLC,0.3157
same,Fold Change of pyridoxine,platform nLC,−0.1015
same,Fold Change of pyridoxine,platform pLC,−0.239
same,Fold Change of pyrimidine,"metabolite pyrimidine, platform GC",0.159
same,Fold Change of retinoic acid,"metabolite retinoic acid, platform nLC",0
same,Fold Change of riboflavin,"metabolite riboflavin, platform pLC",0
same,Fold Change of salicylic/HObenzoic,"metabolite salicylic/HObenzoic, platform nLC",0
same,Fold Change of selenoDLmethionine,platform nLC,−0.6722
same,Fold Change of selenoDLmethionine,platform pLC,−0.7083
same,Fold Change of serine,platform nLC,0.152
same,Fold Change of serine,platform pLC,0.2417
same,Fold Change of shikimic acid,"metabolite shikimic acid, platform nLC",0
same,Fold Change of sinapinic acid,"metabolite sinapinic acid, platform nLC",0
same,Fold Change of sorbitol/mannitol,"metabolite sorbitol/mannitol, platform nLC",0.009121
same,Fold Change of squalene,"metabolite squalene, platform GC",0.07431
same,Fold Change of succinic,"metabolite succinic, platform nLC",−0.06141
same,Fold Change of sucrose,"metabolite sucrose, platform nLC",0.1847
same,Fold Change of sugar-phosphate,platform nLC,−0.04543
same,Fold Change of sugar-phosphate,platform pLC,0
same,Fold Change of tetradecanoic acid,platform GC,−0.214
same,Fold Change of tetradecanoic acid,platform nLC,1.029
same,Fold Change of thiamine,"metabolite thiamine, platform pLC",0
same,Fold Change of threonine2,"metabolite threonine2, platform GC",0.457
same,Fold Change of threonine3,"metabolite threonine3, platform GC",0.225
same,Fold Change of threonine/homoserin,platform nLC,0.04034
same,Fold Change of threonine/homoserin,platform pLC,0.1437
same,Fold Change of thymine,platform nLC,0
same,Fold Change of thymine,platform pLC,0
same,Fold Change of tms glutamine3,"metabolite tms glutamine3, platform GC",0.6709
same,Fold Change of tms lysine4,"metabolite tms lysine4, platform GC",0.05667
same,Fold Change of tms tyrosine2,"metabolite tms tyrosine2, platform GC",1.228
same,Fold Change of tms tyrosine3,"metabolite tms tyrosine3, platform GC",0.1911
same,Fold Change of tryptophan,platform nLC,4.676
same,Fold Change of tryptophan,platform pLC,0
same,Fold Change of tyrosine,platform nLC,0.0282
same,Fold Change of tyrosine,platform pLC,0.1008
same,Fold Change of uracil,"metabolite uracil, platform nLC",−0.2779
same,Fold Change of uric acid,"metabolite uric acid, platform pLC",0
same,Fold Change of uridine,"metabolite uridine, platform nLC",0.02855
same,Fold Change of urocanic acid,platform nLC,0
same,Fold Change of urocanic acid,platform pLC,0
same,Fold Change of valine,platform GC,0.345
same,Fold Change of valine,platform nLC,0.0195
same,Fold Change of xanthosine(diH2O),"metabolite xanthosine(diH2O), platform pLC",0
same,Fold Change of xanthosineDiH2O,"metabolite xanthosineDiH2O, platform nLC",0
same,Fold Change of zeatin,platform nLC,0
same,Fold Change of zeatin,platform pLC,0
